Results taken from paper PMC6030096, “Synergy of Physico-chemical and Biological Experiments for Developing a Cyclooxygenase-2 Inhibitor” (Scientific Reports, 2018).
Where two headings read alike, the source gives them in different places.

Columns and labels:
COX-1 [1] = target: T1, COX-1 (Ovis aries, UniProt P05979); assay: COX-1 enzyme immunoassay (Cayman inhibitor screening kit); type: biochemical
T1 construct: purchased Cayman Chemical Co. 560131
T1 sequence (P05979 25-600): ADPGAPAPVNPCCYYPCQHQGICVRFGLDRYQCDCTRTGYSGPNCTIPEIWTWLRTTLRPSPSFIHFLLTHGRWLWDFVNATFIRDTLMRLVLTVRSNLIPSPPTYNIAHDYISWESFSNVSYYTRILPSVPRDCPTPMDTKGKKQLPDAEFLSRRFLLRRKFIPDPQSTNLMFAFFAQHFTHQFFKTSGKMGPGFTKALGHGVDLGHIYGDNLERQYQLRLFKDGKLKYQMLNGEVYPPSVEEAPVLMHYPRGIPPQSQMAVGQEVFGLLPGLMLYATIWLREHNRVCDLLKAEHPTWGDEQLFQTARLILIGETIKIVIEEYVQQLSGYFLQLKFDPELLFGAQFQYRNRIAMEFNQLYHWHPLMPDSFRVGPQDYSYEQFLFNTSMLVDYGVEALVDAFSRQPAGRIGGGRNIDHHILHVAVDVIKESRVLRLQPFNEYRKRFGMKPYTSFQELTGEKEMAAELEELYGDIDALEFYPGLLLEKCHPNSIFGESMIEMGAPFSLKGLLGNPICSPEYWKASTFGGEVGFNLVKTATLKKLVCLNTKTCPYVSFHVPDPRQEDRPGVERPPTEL
Procedure: (§1) Principally, the catalytic activity of COX-1/2 is slowed down in the presence of its inhibitor and quantitatively, it is inversely proportional to the amount of prostaglandin produced in the presence of inhibitor.
(§2) The enzyme inhibition screening assay kits for COX-1/2 and 5-LOX with item no. […] The 100% initial activity tubes for the two enzymes contained 10 µL heme and 10 µL of the enzyme in 160 µL reaction buffer. Then 10 µL inhibitor (compound of above mentioned concentrations) was added to the inhibitor tubes for the two enzymes and 10 µL of vehicle (DMSO) was added to 100% initial activity and background tubes. All the tubes were incubated for 10 min at 37 °C and the reaction was started by adding 10 µL arachidonic acid to all the reaction tubes. After incubation of the reaction vials for 2 min at 37 °C, the enzyme catalysis was stopped by adding 30 µL saturated stannous chloride solution to each test tube and solutions were kept at 0–4 °C. For EIA (enzyme immunoassay) procedure: the EIA buffers and assay specific reagents were prepared as written in the manual. In the COX dilutions, two test tubes labelled as BC1 and BC2 were taken to prepare background samples. Each tube contained 990 µL of EIA buffer and 10 µL of background COX-1 for BC1 and 10 µL of background COX-2 for BC2. The samples for 100% initial activity were diluted in three vials labelled IA1, IA2 and IA3 for each enzyme. IA1 contained 990 µL EIA buffer and 10 µL enzyme, IA2 has 950 µL buffer and 50 µL solution of IA1 (1:2000 dilution of original sample) and IA3 carried 500 µL of buffer and 500 µL of IA2 solution (1:4000 dilution of original sample). Each solution was thoroughly mixed. Solutions of IA2 and IA3 were used for the assaying. […] C2 contained 950 µL buffer and 50 µL solution of C1 (1:2000 dilution of original sample) and vial C3 was charged with 500 µL buffer and 500 µL solution from C2 (1: 4000 dilution of original sample). Only C2 and C3 were run in the assay. After all the reaction dilutions, these were then subjected to 96 wells plate. The wells were divided as: 2 blank wells, 2 NSB wells (non-specific binding), 3 B0 wells (maximum binding), one TA well (total activity), 16 wells for standards (S1–S8 in repeat), 2 BC1 and 2 BC2 wells. Compounds (inhibitors) were put in all the other wells. The sequence for the addition of reagents onto the plate was as per the protocol of the assay kit. […] For developing the plate; it was emptied and washed with wash buffer 5 times followed by the addition of 200 µL Ellman’s reagent to each well. 5 µL tracer was added to the TA well. Then the plate was covered and left for 60 mins for development in dark. After the respective time period the cover was removed and the plate was read at 420 nm. %B/Bo (i.e. % sample or maximum bound) value for standards S1-S8 and each sample was determined from the absorbance values obtained according to the calculation given in the protocol. The amount of prostaglandins formed during the enzymatic reaction was calculated from the values of %B/Bo for all the compounds at all concentrations with the help of the standard curve (plotted between %B/Bo of standards and raw data given in the protocol). Then the prostaglandin formed at each concentration of all the compounds and percentage inhibition values were calculated. The graph between percent inhibition of the enzyme and corresponding concentration of the compound provided IC50 values for the compounds.

COX-1 [2] = target: T2, COX-1 (Homo sapiens, UniProt P23219); assay: Human whole blood assay for COX-1 (A23187 stimulated TxB2); type: cell-based; conditions: final conc 1 µM, A23187 50 µM
T2 construct: endogenous in cells; host or cells: human whole blood (heparinized, venipuncture)
T2 sequence (P23219 24-599): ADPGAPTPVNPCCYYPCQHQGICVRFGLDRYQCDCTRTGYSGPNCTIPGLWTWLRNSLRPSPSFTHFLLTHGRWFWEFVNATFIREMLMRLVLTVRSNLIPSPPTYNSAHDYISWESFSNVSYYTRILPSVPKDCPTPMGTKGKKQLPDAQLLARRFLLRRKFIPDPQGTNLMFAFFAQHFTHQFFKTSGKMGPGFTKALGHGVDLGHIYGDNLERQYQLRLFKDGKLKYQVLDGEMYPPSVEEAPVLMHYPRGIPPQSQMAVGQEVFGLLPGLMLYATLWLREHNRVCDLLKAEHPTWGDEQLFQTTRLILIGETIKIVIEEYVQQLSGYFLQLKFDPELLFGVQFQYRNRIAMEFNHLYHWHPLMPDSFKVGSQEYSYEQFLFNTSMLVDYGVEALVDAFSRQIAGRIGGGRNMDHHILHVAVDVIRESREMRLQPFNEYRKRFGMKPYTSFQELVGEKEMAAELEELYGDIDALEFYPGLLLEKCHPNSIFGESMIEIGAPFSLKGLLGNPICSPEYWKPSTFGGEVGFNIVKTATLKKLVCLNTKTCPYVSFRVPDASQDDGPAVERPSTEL
Excerpt: The use of human blood for the whole blood assay was duly approved by the institutional ethical committee of the University for human subjects. Production of prostaglandin PGE2 during lipopolysaccharide (LPS) stimulated whole blood was used to quantify COX-2 inhibitory activity whereas calcium ionophore (A23187) stimulated thromboxane (TxB2) production was used to measure COX-1 inhibitory activity of the compounds.
Approval for the use of human blood was taken from the institutional ethical committee of Guru Nanak Dev University Amritsar and informed consent was obtained from the subject[32],[33]. All experiments were performed in accordance with the relevant guidelines and regulations. By venipuncture, the blood sample was collected in heparinized tubes. […] Each sample in duplicate was assayed for TxB2 (the breakdown product of TxA2) using TXB2 Express ELISA kit (Cayman Chemicals, Ann Arbor, MI) by the reported protocol.

COX-2 = target: T3, COX-2 (Homo sapiens, UniProt P35354); assay: COX-2 enzyme immunoassay (Cayman inhibitor screening kit); type: biochemical; design: purchased Cayman Chemical Co. 560131; conditions: for IC50: enzyme immunoassay, average of three experiments; for Selectivity index: SI = IC50 (COX-1)/ IC50 (COX-2)
T3 sequence (P35354 18-604): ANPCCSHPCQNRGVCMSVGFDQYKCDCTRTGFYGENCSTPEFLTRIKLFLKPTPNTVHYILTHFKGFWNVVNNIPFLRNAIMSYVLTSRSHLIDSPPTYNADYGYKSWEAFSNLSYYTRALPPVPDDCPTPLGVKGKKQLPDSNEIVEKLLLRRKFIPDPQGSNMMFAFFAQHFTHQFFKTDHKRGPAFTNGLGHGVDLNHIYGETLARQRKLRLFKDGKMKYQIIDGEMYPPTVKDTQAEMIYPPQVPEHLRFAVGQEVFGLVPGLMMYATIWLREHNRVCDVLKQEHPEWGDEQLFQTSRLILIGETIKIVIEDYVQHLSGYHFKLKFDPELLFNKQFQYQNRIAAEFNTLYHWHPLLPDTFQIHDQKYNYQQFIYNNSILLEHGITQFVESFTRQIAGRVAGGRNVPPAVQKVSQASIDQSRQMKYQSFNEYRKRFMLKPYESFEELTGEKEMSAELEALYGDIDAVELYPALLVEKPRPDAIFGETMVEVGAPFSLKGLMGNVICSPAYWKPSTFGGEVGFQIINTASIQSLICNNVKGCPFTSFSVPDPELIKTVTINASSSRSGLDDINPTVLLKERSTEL
Procedure: as §1, §2

[3] = enzyme immunoassay, average of three experiments, read-out: IC50 COX-1

SMILES | IC50 (COX-1 [1]; [3]) [nM] | Production of TXB2, +Ca^2+ Ionophore (COX-1 [2]) [ng/mL] | IC50 (COX-2) [nM] | IC50 (COX-1 [1]) [nM] | Selectivity index (COX-2)
O=C1Nc2ccccc2C1=Cc1cn(C[C@H](O)Cn2c3ccccc3c(=O)c3ccccc32)c2ccccc12 [(S)-3c] | 60000 ± 3000 | 1.80 ± 0.5 | 800 ± 75 | – | –
O=C1NC(=O)C(=Cc2cn(CCCn3c4ccccc4c(=O)c4ccccc43)c3ccccc23)C(=O)N1 [Compound 4a] | – | 1.84 ± 0.11 | 100 ± 60 | 30000 ± 1800 | 300
O=C1Nc2ccccc2C1=Cc1cn(CCCn2c3ccccc3c(=O)c3ccccc32)c2ccccc12 [Compound 4c] | 4000 ± 320 | 1.70 ± 0.3 | 300 ± 15 | – | 13.33
